Assay results published in patent US20150250167A1, “COMPOSITION FOR NOXIOUS ORGANISMS-CONTROLLING AGENT AND METHOD FOR USING THE SAME” (priority 2001, published 2015).
Like-named read-outs stand apart in the source and are kept apart here.

Assays:
[1] = test system: Green Peach Aphid (Myzus persicae); test: Insecticidal test on green peach aphid, spraying of Chinese cabbage, control value; format: in vivo; settings: single agent, 6 days after spraying
[2] = test system: Smaller Tea Tortrix (Adoxophyes orana fosciota); test: Insecticidal test on smaller tea tortrix, tea leaf dipping; format: in vivo; settings: 4th instar larvae, 25° C.; for pest or weed control at 1 ppm / pest or weed control at 50 ppm / pest or weed control at 0.1 ppm: Adoxophyes orana, foliar; for pest or weed control at 50 ppm: single agent 50 ppm
Procedure: Insecticidal Test on Smaller Tea Tortrix (Adoxophyes orana fosciota)
Tea leaves were dipped in a solution of a chemical diluted to a prescribed concentration for 30 seconds. […] Four days and seven days after the treatment, the number of alive insects were counted, from which percentage of death was calculated.

[3] = test system: Brown Rice Planthopper (Nilaparvata lugens); test: Insecticidal test on brown rice planthopper, rice seedling dipping; format: in vivo; settings: single agent; for Death rate (%) After 1 days: after 1 day
Excerpt: Insecticidal Test on Brown Rice Planthopper (Nilaparvata lugens)
Rice seedlings (variety: Nihombare) were dipped in a solution of an agent diluted to a predetermined concentration for 30 seconds. After air-dryness, each seedling was introduced into a glass-made test tube having a diameter of 1.8 cm and a height of 20 cm, and inoculated with ten 3rd inster nimphs of brown rice planthopper. Then, the test tube was stoppered with cotton. One day after and four days after the treatment, the number of alive insects was counted, based on which the insect death rate was calculated.

[4] = test system: Southern Root-Knot Nematode (Meloidogyne incognita); test: Test for the effect on southern root-knot nematode, soil blending with granular preparation; format: in vivo; settings: 300 g ai/10a, single agent, 60 days after treatment
Excerpt: Test for the Effect on Southern Root-Knot Nematode (Meloidogyne incognita)
Two killograms of a soil polluted with southern root-knot nematode was blended with a predetermined dose of a granular preparation. The mixture was filled into a 1/5,000 are Wagner pot. After sowing melon seeds and carrying out the treatment of the present invention, the pot was left to stand in a greenhouse. Sixty days after the treatment, 25 g of the soil was sampled out, the nematode was separated therefrom according to the method of Berman, and the numbers of nematodes were counted after 48 hours.
In the tables, “ai” means active ingredient.

[5] = test system: Rice Water Weevil (Lissorhoptrus oryzophilus); test: Control of rice water weevil on paddyfield rice by nursery box application, extent of injury; format: in vivo; settings: 0.5 g ai/Box, single agent
Rice Blast = settings: in vivo
[6] = test system: Small Brown Planthopper (Laodelphax striatellus); test: Control of small brown planthopper on paddyfield rice by nursery box application, number of parasitic insects; format: in vivo; settings: single agent
Procedure: (§1) Test for the Control of Small Brown Planthopper (Laodelphax striatellus) and Rice Leafroller (Cnaphalocrosis medinalis) on Paddyfield Rice Plant by Nursery Box Application
(§2) Fifty grams of a granular preparation was applied to rice plant (variety: Nihombare) cultured in a nursery box, after which the rice plant was transplanted to the main paddy field (in the middle of May). The controlling effect against small brown planthopper was evaluated by investigating the number of parasitic insects on 30 hills per each plot, 40 days and 60 days after the transplantation. The controlling effect against rice leafroller was evaluated by investigating the number of injured leaves on 100 hills per each plot, 50 days after the transplantation.

[7] = test system: Rice Leafroller (Cnaphalocrosis medinalis); test: Control of rice leafroller on paddyfield rice by nursery box application, number of injured leaves; format: in vivo; settings: single agent
Procedure: as §1, §2

[8] = test system: Diamondback Moth (Plutella xyloxtella); test: Control of diamondback moth on cabbage by soil treatment, number of parasitic insects; format: in vivo; settings: 21 days after transplanting
Procedure: (§3) Test for the Control of Diamondback Moth (Plutella xyloxtella) and Aphid on Cabbage by Soil Treatment
(§4) A granular preparation was mixed into bed soil, and the mixture was filled into a cell seedling box and sown with seeds of cabbage (variety: YR Seitoku). Otherwise, cell seedling planted cabbage was treated with the granular agent either by a treatment in the foliage leaf extraction period, or by a pre-transplanting treatment, or by a pricking-in hole treatment, or by a plant foot treatment after the planting. Twenty one days after the transplanting (in the middle of June), the number of parasitic insects was counted on 30 hills in the case of diamondback moth and on 10 hills in the case of aphid.

Aphid = test: Control of aphid on cabbage by soil treatment, number of parasitic insects; format: in vivo; settings: 21 days after transplanting
Procedure: as §3
as §4, with “Twenty one days after the transplanting (in the middle of June), the number of parasitic insects was counted on 30 hills in the case of diamondback moth and on 10 hills in the case of aphid.” left out

Cutworm = test: Test for the effect against cutworm on beet, drench, number of injured hills per 100 hills; format: in vivo
Procedure: Test for the Effect Against Cutworm on Beet
Beet seedlings (variety: Monoace S) planted in a paper pot was treated with 3 L/m^2 of a solution of an agent diluted to a predetermined concentration, by the method of drench. Just after the drench, the plant was set. Predetermined days after the setting, the number of injured hills per 100 hills was counted.

[9] = test system: Citrus Yellow Thrips (Frankliniella occidentalis); test: Control of citrus yellow thrips on egg plant by combined use with natural enemy pesticide, number of thrips; format: in vivo; settings: 100 ppm, spray
[10] = test system: Resistant Strain of Two-Spotted Spider Mite; settings: 100 ppm, single agent, 2 days after spraying
[11] = Myzus persicae, 144 h, read-out: Control degree (%)
[12] = 5 mg ai/hill, plant foot treatment
[13] = 5 mg ai/hill, pre-transplanting treatment
[14] = 5 mg ai/hill, pricking-in hole treatment
[15] = 5 mg ai/hill, soil incorporation
[16] = 5 mg ai/hill, true leaf extraction season treatment
[17] = 96 h, single agent 1 ppm, read-out: Death rate (%) After 4 days
[18] = 168 h, single agent 1 ppm, read-out: Death rate (%) After 7 days
[19] = 20 mg ai/hill, picking-in hole treatment
[20] = 20 mg ai/hill, plant foot treatment
[21] = 20 mg ai/hill, pre-transplanting treatment

Cc1c(COC(=O)[C@@H]2[C@H](/C=C(\Cl)C(F)(F)F)C2(C)C)cccc1-c1ccccc1 (racemic) [bifenthrin]
pest or weed control at 0.1 ppm [1, 11]: 80%

Cc1cc(C(F)(F)C(F)(F)F)ccc1NC(=O)c1cccc(Cl)c1C(=O)NC(C)C [Compound 19]
Death rate (%) After 4 days ([2]; single agent 0.3 ppm): 0% | Death rate (%) After 7 days ([2]; single agent 0.3 ppm): 30% | Control degree (%) ([1]; 100 ppm): 0% | Death rate (%) After 1 days ([3]; 100 ppm): 0% | Death rate (%) After 5 days ([3]; 100 ppm): 0% | Number of nematodes per 25 g of soil sample [4]: 36 | Extent of injury After 21 days [5]: 38.9 | Areal rate of disease spot (%) After 60 days (Rice Blast): 8.3% | Number of parasitic planthoppers per 30 hills After 40 days ([6]; 0.5 g ai/Box): 325 | Number of parasitic planthoppers per 30 hills After 60 days ([6]; 0.5 g ai/Box): 389 | Percentage of injured leaves (%) After 50 days ([7]; 0.5 g ai/Box): 0.16% | Number of parasitic insects per 30 hills, Diamondback moth [8, 12]: 2 | Number of parasitic insects per 30 hills, Diamondback moth [8, 13]: 1 | Number of parasitic insects per 30 hills, Diamondback moth [8, 14]: 1 | Number of parasitic insects per 30 hills, Diamondback moth [8, 15]: 1 | Number of parasitic insects per 30 hills, Diamondback moth [8, 16]: 2 | Number of parasitic insects per 30 hills, Aphid (Aphid; [12]): 489 | Number of parasitic insects per 30 hills, Aphid (Aphid; [13]): 399 | Number of parasitic insects per 30 hills, Aphid (Aphid; [14]): 467 | Number of parasitic insects per 30 hills, Aphid (Aphid; [15]): 445 | Number of parasitic insects per 30 hills, Aphid (Aphid; [16]): 457 | Number of injured hills per 100 hills, After 60 days (Cutworm; 15 g ai/10a): 0 | Number of injured hills per 100 hills, After 90 days (Cutworm; 15 g ai/10a): 8 | Number of injured hills per 100 hills, After 120 days (Cutworm; 15 g ai/10a): 21 | Number of parasitic insects per 20 leaves, After 60 days [9]: 20 | Number of parasitic insects per 20 leaves, After 90 days [9]: 27 | Number of parasitic insects per 20 leaves, After 120 days [9]: 55 | Death rate (%) [10]: 0%

COP(=O)(NC(C)=O)SC (stereo not shown) [acephate]
pest or weed control at 10 ppm [1, 11]: 48% | Number of injured hills per 100 hills, After 60 days (Cutworm; 50 g ai/10a): 2 | Number of injured hills per 100 hills, After 90 days (Cutworm; 50 g ai/10a): 14 | Number of injured hills per 100 hills, After 120 days (Cutworm; 50 g ai/10a): 24

CCOC(=O)CCN(SN(C)C(=O)Oc1cccc2c1OC(C)(C)C2)C(C)C [benfuracarb]
Number of parasitic planthoppers per 30 hills After 40 days ([6]; 2.5 g ai/Box): 78 | Number of parasitic planthoppers per 30 hills After 60 days ([6]; 2.5 g ai/Box): 244 | Percentage of injured leaves (%) After 50 days ([7]; 2.5 g ai/Box): 1.13%

CC(C)N1C(=O)N(c2ccccc2)CS/C1=N\C(C)(C)C [buprofezin]
Death rate (%) After 1 days ([3]; 0.3 ppm): 0% | Death rate (%) After 5 days ([3]; 0.3 ppm): 45%

CCOCn1c(-c2ccc(Cl)cc2)c(C#N)c(Br)c1C(F)(F)F [chlorfenapyr, reference compound]
pest or weed control at 1 ppm [2, 17]: 0% | pest or weed control at 1 ppm [2, 18]: 0%

O=C(NC(=O)c1c(F)cccc1F)Nc1cc(Cl)c(Oc2ncc(C(F)(F)F)cc2Cl)c(Cl)c1 [chlorfluazuron, reference compound]
pest or weed control at 1 ppm [2, 17]: 10% | pest or weed control at 1 ppm [2, 18]: 30%

CCOP(=S)(OCC)Oc1nc(Cl)c(Cl)cc1Cl [chlorpyriphos, reference compound]
pest or weed control at 1 ppm [2, 17]: 10% | pest or weed control at 1 ppm [2, 18]: 10%

CC(C)([CH2][Sn]([CH2]C(C)(C)c1ccccc1)([CH2]C(C)(C)c1ccccc1)[O][Sn]([CH2]C(C)(C)c1ccccc1)([CH2]C(C)(C)c1ccccc1)[CH2]C(C)(C)c1ccccc1)c1ccccc1 [fenbutatin oxide]
Death rate (%) [10]: 50%

Cc1nn(C)c(Oc2ccccc2)c1C=NOCc1ccc(C(=O)OC(C)(C)C)cc1 [fenpyroximate, reference compound]
pest or weed control at 50 ppm ([2]; 96 h, read-out: Death rate (%) After 4 days): 0% | pest or weed control at 50 ppm ([2]; 168 h, read-out: Death rate (%) After 7 days): 0%

O=C(NC(=O)c1c(F)cccc1F)Nc1ccc(Oc2ccc(C(F)(F)F)cc2Cl)cc1F [flufenoxuron]
pest or weed control at 50 ppm ([1]; Myzus persicae, 144 h, 50 ppm, read-out: Control degree (%)): 11%

CCOP(=O)(SC(C)CC)N1CCSC1=O (stereo not shown) [fosthiazate]
Number of nematodes per 25 g of soil sample [4]: 7

CC(C)(COCc1cccc(Oc2ccccc2)c1)c1ccc(OC(F)(F)Br)cc1 [halfenprox]
Death rate (%) [10]: 35%

O=[N+]([O-])NC1=NCCN1Cc1ccc(Cl)nc1 [imidacloprid]
pest or weed control at 0.1 ppm [1, 11]: 69% | Death rate (%) After 1 days ([3]; 0.1 ppm): 35% | Death rate (%) After 5 days ([3]; 0.1 ppm): 35% | Number of parasitic planthoppers per 30 hills After 40 days ([6]; 1 g ai/Box): 0 | Number of parasitic planthoppers per 30 hills After 60 days ([6]; 1 g ai/Box): 29 | Percentage of injured leaves (%) After 50 days ([7]; 1 g ai/Box): 1.63% | Number of parasitic insects per 30 hills, Diamondback moth [8, 19]: 40 | Number of parasitic insects per 30 hills, Diamondback moth [8, 20]: 38 | Number of parasitic insects per 30 hills, Diamondback moth [8, 21]: 35 | Number of parasitic insects per 30 hills, Aphid (Aphid; [19]): 16 | Number of parasitic insects per 30 hills, Aphid (Aphid; [20]): 13 | Number of parasitic insects per 30 hills, Aphid (Aphid; [21]): 10

COC(=O)N(C(=O)N1CO[C@@]2(C(=O)OC)Cc3cc(Cl)ccc3C2=N1)c1ccc(OC(F)(F)F)cc1 [indoxacarb, reference compound]
Death rate (%) After 4 days ([2]; single agent 1 ppm): 10% | Death rate (%) After 7 days ([2]; single agent 1 ppm): 40%

COc1cccc(C(=O)NN(C(=O)c2cc(C)cc(C)c2)C(C)(C)C)c1C [methoxyfenozide, reference compound]
pest or weed control at 0.1 ppm ([2]; 96 h, single agent 0.1 ppm, read-out: Death rate (%) After 4 days): 0% | pest or weed control at 0.1 ppm ([2]; 168 h, single agent 0.1 ppm, read-out: Death rate (%) After 7 days): 50%

CNC(=O)O/N=C(\SC)C(=O)N(C)C [oxamyl]
Number of nematodes per 25 g of soil sample [4]: 13

CC1=NNC(=O)N(/N=C/c2cccnc2)C1 [pymetrozin]
Death rate (%) After 1 days ([3]; 100 ppm): 10% | Death rate (%) After 5 days ([3]; 100 ppm): 40%

CC(C)(C)c1ccc(CSc2cnn(C(C)(C)C)c(=O)c2Cl)cc1 [pyridaben]
pest or weed control at 10 ppm [1, 11]: 43%

CCOc1ccc([Si](C)(C)CCCc2ccc(F)c(Oc3ccccc3)c2)cc1 [silafluofen]
Death rate (%) After 1 days ([3]; 1 ppm): 30% | Death rate (%) After 5 days ([3]; 1 ppm): 30%

CCc1nn(C)c(C(=O)NCc2ccc(C(C)(C)C)cc2)c1Cl [tebufenpyrad]
Death rate (%) [10]: 60%

emamectin-benzoate [reference compound]
Death rate (%) After 4 days ([2]; single agent 0.1 ppm): 10% | Death rate (%) After 7 days ([2]; single agent 0.1 ppm): 45%

milbemectin
Control degree (%) ([1]; 1 ppm): 82%
